Data on six compounds can be found in patent publication US9624249B2, “Nucleoside kinase bypass compositions and methods” (Merck Sharp & Dohme Corp., priority 2013, dated 2017).

The test system of series [1] is hepatitis virus C (HCV) genotype 1c. As to the kind of experiment: HCV replicon, genotype printed as 1c. The class given is cell-based. The following applies: read-out: Replicon: EC50 (1c). In general terms: A replicon is a self-replicating genome or part of one, used to study replication in cells.
Series [2] has as its system hepatitis virus C (HCV) genotype 1b. In words: HCV subgenomic replicon assay (RHEPTAQ), genotype 1b. The class given is cell-based. The following applies: Hepatitis C virus, Table 4, genotype 1b; read-out: Replicon: EC50 (1b). An excerpt: (§1) Table 3 and Table 4 summarize the measured activities of these prodrugs as assessed in a subgenomic replicon assay (RHEPTAQ), against genotypes 1a, 1b and 2a.

A further series can be described thus: Tox: EdU/CellCount CC50. The class given is cell-based.
In series [3] the test system is hepatitis virus C (HCV) genotype 1a. As to the kind of experiment: HCV subgenomic replicon assay (RHEPTAQ), genotype 1a. The class given is cell-based. The following applies: Hepatitis C virus, Table 4, genotype 1a; read-out: Replicon: EC50 (1a).
Description: as §1

Series [4] has as its system hepatitis virus C (HCV) genotype 2a. As to the kind of experiment: HCV subgenomic replicon assay (RHEPTAQ), genotype 2a. The class given is cell-based. As to conditions: Hepatitis C virus, Table 4, genotype 2a; read-out: Replicon: EC50 (2a).
Description: as §1

Series [5] concerns peripheral blood mononuclear cells (PBMCs). As to conditions: pbmc; cited from earlier work.
A further series has as its system HCV GT1b. The following applies: Cho et al. 2012, Table 1; cited from earlier work.
Another series concerns HIV-1. As to conditions: HIV-1, PBMCs; cited from earlier work.
Where [6] appears, read: CellCount readout, read-out: Tox: CellCount CC50.
[7] abbreviates: EdU readout, read-out: Tox: EdU CC50.

pEC50: −log10 of the molar value. Like-named read-outs stand apart in the source and are kept apart here.

As usually defined, the pEC50 is −log10 of the EC50, conventionally taken in molar units. A word on the CC50: it is the concentration at which the toxic effect on the cells reaches its halfway point. As for `C[C@@]1(F)[C@@H]2OP(=O)(OC3CSSC[C@@H]3OCc3ccccc3)OCC2O[C@H]1n1ccc(=O)[nH]c1=O` (some centres unmarked), the pEC50 in series [1] was 7.00; in series [2] it was 6.97; in series [3], 7.04. In addition, the 50% cytotoxic concentration (CC50) was determined as 85 µM in the series “Tox: EdU/CellCount CC50” (setting [6]) and 30 µM in the series “Tox: EdU/CellCount CC50” (setting [7]).
On to `C[C@@]1(O)[C@@H]2OP(=O)(OC3CSSC[C@@H]3OCc3ccccc3)OCC2O[C@H]1n1ccc(=O)[nH]c1=O` (single isomer, unassigned) [drawing 112], for which the pEC50 in series [2] was 6.96; in series [4] it was 7.05; in series [3], 7.15. For the same compound, the CC50 in the series “Tox: EdU/CellCount CC50” (setting [6]) came to 8.5 µM; in the series “Tox: EdU/CellCount CC50” (setting [7]), 4.1 µM.
Consider `CC(Cn1cnc2c(N)ncnc21)OCP(=O)(O)OP(=O)(O)OP(=O)(O)O` (stereo in doubt) [tenofovir diphosphate], for which the “half-life in peripheral blood mononuclear cells (PBMCs)” value in series [5] was more than 100 h.
Regarding `C[C@@]1(O)[C@H](O)[C@@H](CO)O[C@H]1n1ccc(=O)[nH]c1=O` [2′-C-Me-U, 2′-C-methyl-uridine], the pEC50 in the series with HCV GT1b is 4.82.
With `C[C@H](Cn1cnc2c(N)ncnc21)OCP(=O)(O)O` [tenofovir], the negative logarithm of the EC50 (pEC50) in the series with HIV-1 is 5.92.
With `C[C@@]1(O)[C@H](O)[C@@H](COP(=O)(O)OP(=O)(O)OP(=O)(O)O)O[C@H]1n1ccc(=O)[nH]c1=O` [triphosphate 2′-C-Me-U], in the series on HCV GT1b, the pEC50 was 5.88.
